According to publication PMC7345836, “Absorption and Tissue Distribution of Siphonaxanthin from Green Algae” (Marine Drugs, 2020):

Experiments:
[1] = Body weight, food intake and tissue weight of ICR mice fed siphonaxanthin diet; format: in vivo
Procedure: (§1) All experimental animal protocols were approved by the Animal Experimentation Committee of Kyoto University, Japan, for the care and use of experimental animals (Approval No. 26–35). Male ICR mice (7 weeks of age) were purchased from Japan SLC, Inc. (Hamamatsu, Japan). All mice were housed individually and maintained on an alternating 12-h light/dark cycle at a temperature of 23 ± 1 °C and free access to drinking water and chow (Oriental Yeast Co., Ltd., Tokyo, Japan). After an acclimatization period of 1 week, the mice were randomly divided into control and siphonaxanthin groups (n = 4 per group). Mice in the control group were fed an AIN-93G diet. The siphonaxanthin mouse group was fed the AIN-93G diet with siphonaxanthin supplementation, 65.79 nmol/g of diet (0.004%). The total food intake and body weight were recorded daily. After dietary supplementation for 16 days, the mice were anesthetized with isoflurane. Blood was collected from the caudal vena cava. Plasma was prepared by centrifuging at 400 g for 15 min at 4 °C. The tissues were rapidly removed, weighed, and immediately frozen in liquid nitrogen, and stored at −80 °C until use.

[2] = tested on: Caco-2 cells; test: Uptake and metabolism of micellar siphonaxanthin by differentiated Caco-2 cells; format: in vitro ADME, human; details: Caco-2 cells incubated with 1 nmol/well siphonaxanthin solubilized micelles for 1, 3, 6 and 24 h
Procedure: Caco-2 cells obtained from the RIKEN Gene Bank (Tsukuba, Japan) were cultured in Dulbecco’s Modified Eagle’s Medium (DMEM) containing 10% fetal bovine serum (FBS), 1% penicillin-streptomycin (PS), and 1% non-essential amino acids in a humidified atmosphere of 95% air and 5% CO2 at 37 °C. For differentiation, cells were seeded in 12-well plates at a density of 2.0 × 10^5 cells/well in 1 mL DMEM medium described above and allowed to differentiate until day 22 from seeding. The medium was regularly changed three times a week. Experiments were performed at day 22 post-seeding on 12-well plates.
Siphonaxanthin solubilized in micelles was added to the medium for treatment, and micelle formation was performed as previously described. […] The concentration of micellar carotenoid was determined as 1.0 ± 0.05 μmol/L by HPLC before use in the following experiment.
The cell monolayers on 12-well plates were rinsed with the serum-free medium and then incubated in 1 mL of medium containing micellar siphonaxanthin. […] The residue was dissolved in methanol and subjected to quantitative and qualitative analysis. […] The concentration of siphonaxanthin in the medium was also analyzed. An aliquot of the medium was mixed with 4-fold methanol and subjected to the above HPLC analysis for quantify. […]

[3] = Tissue distribution and accumulation of siphonaxanthin and its metabolites in mice after 16-day dietary supplementation (HPLC); format: in vivo; details: ICR mice
Procedure: as §1
Carotenoids were then extracted from the plasma and tissues. Briefly, aliquots of tissue samples (0.2 g) were homogenized in a 9-fold volume of 0.9% NaCl saline with a homogenizer dispenser (T10 basic ULTRA-TURRAX, IKA). Plasma samples were diluted with a 3-fold volume of Milli-Q water. The resultant tissue homogenates (0.9 mL) or diluent plasma samples (0.9 mL) were mixed with 3 mL of dichloromethane/methanol (2:1, v/v) to extract carotenoids. The samples were extracted three times, and the dichloromethane layer was collected after centrifugation at 1690 g at 4 °C for 10 min. After evaporation under nitrogen, the residue was resuspended in 20 μL of dichloromethane and methanol (1:1, v/v) for HPLC analysis.
HPLC analysis was performed using a Prominence LC system (Shimadzu, Kyoto, Japan) connected to a photodiode array detector (SPD-M20A, Shimadzu, Kyoto, Japan), followed by an ion trap-time of flight mass spectrometer (LCMS-IT-TOF, Shimadzu, Kyoto, Japan) equipped with an atmospheric pressure chemical ionization (APCI) source or electrospray ionization (ESI) source. Siphonaxanthin was separated on a TSK gel ODS-80Ts QA column (2.0 × 250 mm, 5 μm, Tosoh, Tokyo, Japan). The binary gradient mobile phase was methanol/water (83:17, v/v) containing 0.1% ammonium acetate as mobile phase A and ethyl acetate/methanol (30:70, v/v) containing 0.1% ammonium acetate as mobile phase B. The column was eluted at a flow rate of 0.2 mL/min using the following gradients: 0–30 min, 0% B; 30–45 min, 0–100% B; 45–60 min, 100% B; 60–65 min, 100–0% B; 65–70 min, 0% B. Siphonaxanthin was detected at 450 nm. The APCI source was heated at 200 °C, and the probe was maintained at 400 °C. Nitrogen was used as sheath gas at 2.0 L/min, and drying gas was used at 25 kPa. Mass spectra were recorded in the positive ion mode. For the ESI source, sheath gas was set at 1.5 L/min, and drying gas was used at 120 kPa. A spray voltage of 4.5 kV was used for positive ionization. The peak identities of siphonaxanthin and its possible metabolites were further confirmed from their characteristic UV-vis spectra and their positive ions. Siphonaxanthin was quantified from its peak area at 450 nm using an external standard calibration curve with purified siphonaxanthin. Due to the unavailability of standards, possible metabolites of siphonaxanthin were estimated from the siphonaxanthin standard curve.

[4] = siphonaxanthin diet vs control diet, 16 days

Concentration in brain ([3]; Brain, 16-day diet with siphonaxanthin 65.79 nmol/g, mean ± SEM, n = 4, N.D., not detected): 0.4 ± 0.3 pmol/g | % of the total carotenoids in brain ([3]; Brain, 16-day siphonaxanthin diet): 100% | Concentration in colon ([3]; Colon, 16-day diet with siphonaxanthin 65.79 nmol/g, mean ± SEM, n = 4): 198 ± 24.5 pmol/g | % of the total carotenoids in colon ([3]; Colon, 16-day siphonaxanthin diet): 82.5% | % of the total carotenoids in epididymal WAT ([3]; Epididymal WAT, 16-day siphonaxanthin diet): 14.6% | Concentration in epididymal WAT ([3]; Epididymal white adipose tissue, 16-day diet with siphonaxanthin 65.79 nmol/g, mean ± SEM, n = 4, N.D., not detected): 27.8 ± 14.3 pmol/g | Concentration in heart ([3]; Heart, 16-day diet with siphonaxanthin 65.79 nmol/g, mean ± SEM, n = 4): 67.1 ± 25.2 pmol/g | % of the total carotenoids in heart ([3]; Heart, 16-day siphonaxanthin diet): 52.2% | Concentration in BAT ([3]; Interscapular brown adipose tissue, 16-day diet with siphonaxanthin 65.79 nmol/g, mean ± SEM, n = 4): 30.5 ± 11.4 pmol/g | % of the total carotenoids in BAT ([3]; Interscapular brown adipose tissue, 16-day siphonaxanthin diet): 41.7% | Concentration in kidney ([3]; Kidney, 16-day diet with siphonaxanthin 65.79 nmol/g, mean ± SEM, n = 4): 38.2 ± 15.7 pmol/g | % of the total carotenoids in kidney ([3]; Kidney, 16-day siphonaxanthin diet): 84.1% | Concentration in liver ([3]; Liver, 16-day diet with siphonaxanthin 65.79 nmol/g, mean ± SEM, n = 4): 37.1 ± 14.4 pmol/g | % of the total carotenoids in liver ([3]; Liver, 16-day siphonaxanthin diet): 18.7% | Concentration in lung ([3]; Lung, 16-day diet with siphonaxanthin 65.79 nmol/g, mean ± SEM, n = 4): 22.9 ± 8.2 pmol/g | % of the total carotenoids in lung ([3]; Lung, 16-day siphonaxanthin diet): 38.8% | % of the total carotenoids in mesenteric WAT ([3]; Mesenteric WAT, 16-day siphonaxanthin diet): 24.5% | Concentration in mesenteric WAT ([3]; Mesenteric white adipose tissue, 16-day diet with siphonaxanthin 65.79 nmol/g, mean ± SEM, n = 4): 110 ± 50.8 pmol/g | Concentration in muscle ([3]; Muscle, 16-day diet with siphonaxanthin 65.79 nmol/g, mean ± SEM, n = 4): 14.2 ± 7.5 pmol/g | % of the total carotenoids in muscle ([3]; Muscle, 16-day siphonaxanthin diet): 52.6% | Concentration in pancreas ([3]; Pancreas, 16-day diet with siphonaxanthin 65.79 nmol/g, mean ± SEM, n = 4): 46.1 ± 12.5 pmol/g | % of the total carotenoids in pancreas ([3]; Pancreas, 16-day siphonaxanthin diet): 45.4% | % of the total carotenoids in perirenal WAT ([3]; Perirenal WAT, 16-day siphonaxanthin diet): 13.3% | Concentration in perirenal WAT ([3]; Perirenal white adipose tissue, 16-day diet with siphonaxanthin 65.79 nmol/g, mean ± SEM, n = 4): 22.1 ± 12.0 pmol/g | % of the total carotenoids in plasma ([3]; Plasma, 16-day siphonaxanthin diet): 5.5% | Concentration in small intestine ([3]; Small intestine, 16-day diet with siphonaxanthin 65.79 nmol/g, mean ± SEM, n = 4): 3428 ± 1389 pmol/g | % of the total carotenoids in small intestine ([3]; Small intestine, 16-day siphonaxanthin diet): 79.5% | Concentration in spleen ([3]; Spleen, 16-day diet with siphonaxanthin 65.79 nmol/g, mean ± SEM, n = 4): 20.6 ± 3.4 pmol/g | % of the total carotenoids in spleen ([3]; Spleen, 16-day siphonaxanthin diet): 45.7% | Concentration in stomach ([3]; Stomach, 16-day diet with siphonaxanthin 65.79 nmol/g, mean ± SEM, n = 4, siphonaxanthin standard curve): 2054 ± 636 pmol/g | % of the total carotenoids in stomach ([3]; Stomach, 16-day siphonaxanthin diet): 94.0% | Concentration in testis ([3]; Testis, 16-day diet with siphonaxanthin 65.79 nmol/g, mean ± SEM, n = 4): 25.0 ± 10.0 pmol/g | % of the total carotenoids in testis ([3]; Testis, 16-day siphonaxanthin diet): 84.3% | concentration at 16 days ([3]; male, mouse, oral, 65.79 nmol/g of diet, Plasma, 16-day diet with siphonaxanthin 65.79 nmol/g, mean ± SEM, n = 4): 18.3 ± 4 nM
SMILES: CC1=C[C@H](O)CC(C)(C)[C@H]1/C=C/C(C)=C/C=C/C(C)=C/C=C/C=C(C)/C=C/C=C(\CO)C(=O)CC1=C(C)C[C@@H](O)CC1(C)C [Siphonaxanthin, 3,19,3’-Trihydroxy-7,8-dihydro-β,ε-caroten-8-one]
Body weight [1, 4]: not altered | Weight of the other tissues [1, 4]: did not significantly decrease | Weight of the spleen ([1]; siphonaxanthin diet vs control diet, 16 days, p < 0.05): significantly decreased | Food intake ([1]; siphonaxanthin vs control group, 16-day experimental period): not altered | Cellular concentration of siphonaxanthin [2]: rapidly and linearly increased until 3 h after incubation, and then gradually increased until 24 h | Concentration of siphonaxanthin in the medium [2]: decreased with increasing incubation time
